Measurements published in US20220202012A1, “SPROUT INHIBITOR FOR POTATO AND METHOD OF USE THEREOF” (UPL Limited, priority 2019, published 2022).
Several values for one entry are separate records, joined by “and”; a condition that tells them apart may be missing. Identical values can stand only once.

How the values were obtained:
storage potatoes = assay: Field trial: sprout suppression in storage potatoes, composition applied on a conveyor belt; type: in vivo, Solanum tuberosum
Protocol: The efficacy of sprout inhibitor for sprout suppression in storage potatoes was evaluated by applying the composition of present invention on potatoes on a conveyor belt. The treatment application for trial is at crop storage majority treatment 1) Beginning of sprouting: sprouts visible (<1 mm) and, treatment 2) at end of dormancy (sprouts 2-3 mm). After completion of the test, the potatoes were evaluated on sprouting reduction efficiency. No phytotoxicity was observed.

[1] = tested on: potatoes of the variety Fontane and Innovator; assay: Field trials in Belgium 2018/2019: anti-sprout spray treatment of stored potatoes; type: in vivo, Solanum tuberosum; parameters: Tuber sprate 126 da-a / Tuber sprate 182 da-a: scale not given here; Sprout weight after 55 DA / Sprout LENMAX after 55 DA / Sprout weight 55 DA / Sprout weight 116 DA / Sprout Lenmax 55 DA / Sprout Lenmax 116 DA / Sprout lenmax 126 DA-A / Sprout lenmax 182 DA-A / Sprout weight 126 DA / Sprout weight 182 DA: unit not given here; details: for Sprout LENMAX after 55 DA: Length maximal; for Sprout Lenmax 55 DA / Sprout weight 55 DA / Tuber sprout % 55 DA / Sprout Lenmax 116 DA / Sprout weight 116 DA / Tuber sprout % 116 DA: Table 4; for Sprout lenmax 126 DA-A / Sprout weight 126 DA / Tuber sprouted (%) 126 DA / Tuber sprate 126 da-a / Sprout lenmax 182 DA-A / Sprout weight 182 DA / Tuber sprouted % 182 DA / Tuber sprate 182 da-a: Table 5
Protocol: Field trials were conducted in Belgium, during 2018 and 2019, in the potato crop. The potatoes of the variety Fontane and Innovator was used for anti-sprout treatment (Variety for processing) came up directly from the field (Harvested on Oct. 5, 2018 and Sep. 19, 2018).
The trial was set up in randomized complete block with single control randomized in each block under commercial storage practice. Potatoes treated 3 days after lifting and skin maturity was good. For application of formulation (carrier: 200 ml water for one treatment) container with rack and spray stick was used.
The first application (A) was carried out Potatoes treated 3 days after lifting. The following applications were carried out at four weeks' interval for each treatment.
(A): right after harvest, before putting into storage.
Storage conditions: The trials are stored in shed at temperature 5-18° C. and all plots of a trial should be stored in the same place.

[2] = Treatment (1): Beginning of sprouting, rate 300 ml/1000 kg
[3] = Treatment (2): At end of dormancy, rate not given
[4] = Treatment (1): Beginning of sprouting, rate 400 ml/1000 kg
[5] = Treatment (1): Beginning of sprouting, rate 195 ml/1000 kg
[6] = Treatment (1): Beginning of sprouting, rate 60 ml/1000 kg

C=C(C)C1CC=C(C)C(=O)C1 (stereo not drawn) [Carvone]
Sprout No. (storage potatoes; [2]): 12.3
Sprouted (%) (storage potatoes; [2]): 32.02%
Sprout Number (storage potatoes; [3]): 34.0
Sprouted (%) (storage potatoes; [3]): 96.02%

O=C(O)COc1ccc(Cl)cc1Cl [2,4-D]
Sprout No. (storage potatoes; [4]): 12.3
Sprouted (%) (storage potatoes; [4]): 31.14%
Sprout Number (storage potatoes; [3]): 38.7
Sprouted (%) (storage potatoes; [3]): 99.21%

COCc1cnc(C2=NC(C)(C(C)C)C(=O)N2)c(C(=O)O)c1 (stereo not drawn) [Imazamox, 5-(methoxymethyl)-2-(4-methyl-5-oxo-4-propan-2-yl-1H-imidazol-2-yl)pyridine-3-carboxylic acid]
Sprout No. (storage potatoes; [4]): 9.7
Sprouted (%) (storage potatoes; [4]): 24.77%
Sprout Number (storage potatoes; [3]): 16.7
Sprouted (%) (storage potatoes; [3]): 42.54%
Sprout weight after 55 DA ([1]; rate 12 g ai/1000 kg): 6.89
Tuber SPROUTED (%) after 55 DA ([1]; rate 12 g ai/1000 kg): 78.67%
Sprout weight after 55 DA ([1]; rate 18 g ai/1000 kg): 4.09
Tuber SPROUTED (%) after 55 DA ([1]; rate 18 g ai/1000 kg): 73.21%
Sprout weight after 55 DA ([1]; rate 24 g ai/1000 kg): 4.2
Tuber SPROUTED (%) after 55 DA ([1]; rate 24 g ai/1000 kg): 75.26%
Sprout weight after 55 DA ([1]; rate 30 g ai/1000 kg): 4.13
Tuber SPROUTED (%) after 55 DA ([1]; rate 30 g ai/1000 kg): 71.68%
Sprout LENMAX after 55 DA ([1]; rate 12 g ai/1000 kg): 1.5
Sprout LENMAX after 55 DA ([1]; rate 18 g ai/1000 kg): 1.7
Sprout LENMAX after 55 DA ([1]; rate 24 g ai/1000 kg): 1.2
Sprout LENMAX after 55 DA ([1]; rate 30 g ai/1000 kg): 1.7
Sprout Lenmax 55 DA ([1]; rate 100 ml/1000 kg): 1.5
Sprout weight 55 DA ([1]; rate 100 ml/1000 kg): 6.89
Tuber sprout % 55 DA ([1]; rate 100 ml/1000 kg): 78.67%
Sprout Lenmax 55 DA ([1]; rate 150 ml/1000 kg): 1.7
Sprout weight 55 DA ([1]; rate 150 ml/1000 kg): 4.09
Tuber sprout % 55 DA ([1]; rate 150 ml/1000 kg): 73.21%
Sprout Lenmax 55 DA ([1]; rate 200 ml/1000 kg): 1.2
Sprout weight 55 DA ([1]; rate 200 ml/1000 kg): 4.2
Tuber sprout % 55 DA ([1]; rate 200 ml/1000 kg): 75.26%
Sprout Lenmax 55 DA ([1]; rate 250 ml/1000 kg): 1.7
Sprout weight 55 DA ([1]; rate 250 ml/1000 kg): 4.13
Tuber sprout % 55 DA ([1]; rate 250 ml/1000 kg): 71.68%
Sprout Lenmax 116 DA ([1]; rate 100 ml/1000 kg): 3.3
Sprout weight 116 DA ([1]; rate 100 ml/1000 kg): 12.31
Tuber sprout % 116 DA ([1]; rate 100 ml/1000 kg): 85.86%
Sprout Lenmax 116 DA ([1]; rate 150 ml/1000 kg): 2.8
Sprout weight 116 DA ([1]; rate 150 ml/1000 kg): 7.92
Tuber sprout % 116 DA ([1]; rate 150 ml/1000 kg): 79.15%
Sprout Lenmax 116 DA ([1]; rate 200 ml/1000 kg): 2
Sprout weight 116 DA ([1]; rate 200 ml/1000 kg): 7.07
Tuber sprout % 116 DA ([1]; rate 200 ml/1000 kg): 81.59%
Sprout Lenmax 116 DA ([1]; rate 250 ml/1000 kg): 1.3
Sprout weight 116 DA ([1]; rate 250 ml/1000 kg): 4.92
Tuber sprout % 116 DA ([1]; rate 250 ml/1000 kg): 71.93%
Sprout lenmax 126 DA-A ([1]; rate 50 ml/1000 kg): 3.7
Sprout lenmax 126 DA-A ([1]; rate 100 ml/1000 kg): 2.8 and 5.2
Sprout lenmax 126 DA-A ([1]; rate 150 ml/1000 kg): 1.7
Sprout lenmax 126 DA-A ([1]; rate 200 ml/1000 kg): 2.2 and 2.1
Sprout lenmax 126 DA-A ([1]; rate 250 ml/1000 kg): 0.9
Sprout weight 126 DA ([1]; rate 50 ml/1000 kg): 6.54
Tuber sprouted (%) 126 DA ([1]; rate 50 ml/1000 kg): 88.47%
Sprout weight 126 DA ([1]; rate 150 ml/1000 kg): 2.23 and 1.83
Tuber sprouted (%) 126 DA ([1]; rate 150 ml/1000 kg): 81.43% and 72.58%
Sprout weight 126 DA ([1]; rate 200 ml/1000 kg): 1.93 and 1.75
Tuber sprouted (%) 126 DA ([1]; rate 200 ml/1000 kg): 73.58% and 75.44%
Sprout weight 126 DA ([1]; rate 250 ml/1000 kg): 1.65
Tuber sprouted (%) 126 DA ([1]; rate 250 ml/1000 kg): 75.06%
Tuber sprate 126 da-a ([1]; rate 50 ml/1000 kg): 8.83
Tuber sprate 126 da-a ([1]; rate 100 ml/1000 kg): 9.5 and 8.83
Tuber sprate 126 da-a ([1]; rate 150 ml/1000 kg): 9.5 and 9.58
Tuber sprate 126 da-a ([1]; rate 200 ml/1000 kg): 9.67 and 9.75
Tuber sprate 126 da-a ([1]; rate 250 ml/1000 kg): 9.75
Sprout lenmax 182 DA-A ([1]; rate 50 ml/1000 kg): 4.2
Sprout lenmax 182 DA-A ([1]; rate 150 ml/1000 kg): 1 and 0.7
Sprout lenmax 182 DA-A ([1]; rate 200 ml/1000 kg): 1.7 and 1
Sprout lenmax 182 DA-A ([1]; rate 250 ml/1000 kg): 1.2
Sprout weight 182 DA ([1]; rate 50 ml/1000 kg): 23
Tuber sprouted % 182 DA ([1]; rate 50 ml/1000 kg): 88.1%
Tuber sprouted % 182 DA ([1]; rate 100 ml/1000 kg): 83.33% and 86.19%
Sprout weight 182 DA ([1]; rate 150 ml/1000 kg): 3.77 and 3.13
Tuber sprouted % 182 DA ([1]; rate 150 ml/1000 kg): 73.1% and 75.45%
Sprout weight 182 DA ([1]; rate 200 ml/1000 kg): 5.77 and 3.3
Tuber sprouted % 182 DA ([1]; rate 200 ml/1000 kg): 77.93% and 65.99%
Sprout weight 182 DA ([1]; rate 250 ml/1000 kg): 3.53
Tuber sprouted % 182 DA ([1]; rate 250 ml/1000 kg): 74.98%
Tuber sprate 182 da-a ([1]; rate 50 ml/1000 kg): 8.67
Tuber sprate 182 da-a ([1]; rate 100 ml/1000 kg): 9.67 and 8.83
Tuber sprate 182 da-a ([1]; rate 150 ml/1000 kg): 9.75
Tuber sprate 182 da-a ([1]; rate 200 ml/1000 kg): 9.58 and 9.67
Tuber sprate 182 da-a ([1]; rate 250 ml/1000 kg): 9.67
sprout control over time (in words) ([1]; as compared to other treatments such as maleic hydrazide, CIPC): effective sprout control over an extended period of time
inhibition of sprouts (in words) ([1]; comment on Table 3): effective for inhibition of sprouts
sprout weight (in words) ([1]; comment on Table 3, as compared to maleic hydrazide): an advantage was found
tubers germinated ([1]; comment on Table 5, dose rate 250 ml/1000 kg): 74%

CCCCCCC=CC(C)=O [3-Decen-2-One]
Sprout No. (storage potatoes; [5]): 9.0
Sprouted (%) (storage potatoes; [5]): 24.75%
Sprout Number (storage potatoes; [3]): 32.7
Sprouted (%) (storage potatoes; [3]): 100.0%

Cc1ccc(C)c2ccccc12 [1,4-Dimethylnaphthalene]
Sprout No. (storage potatoes; [6]): 15.7
Sprouted (%) (storage potatoes; [6]): 42.80%
Sprout Number (storage potatoes; [3]): 34.3
Sprouted (%) (storage potatoes; [3]): 94.59%
